Laboratory results from patent publication US10986837B2, “Lactam solubility” (Conopco, Inc., priority 2015, dated 2021).
Blank lines part the entries; values can stand above or below the compound they belong to.

What was measured:
[1] = Lactam solubility in bio-surfactant solutions (48 h agitation, filtration, HPLC); assay type: physicochemical
Description: Bio-surfactant solutions at the levels shown in the results below were prepared for screening. The maximum level tested was dictated by the solubility of the surfactant in water. The following representative example uses 4-(4-chlorophenyl)-5-methylene-pyrrol-2-one.
Solid lactam was weighed into Whatman® Mini Uniprep sample vials, fitted with a 0.45 μm nylon filter (2.7 to 3.3 mg per vial). 50 μL of a solvent solution was placed into each sample vial, the vial capped and shaken briefly by hand to agitate the solid, then placed on a Thermo Labsystems Wellmix® plate shaker and continuously agitated for 48 hours. After this time, the excess solid in the vial was removed using the integral filter membrane and the resultant solution analysed by HPLC to determine the level of dissolved lactam.
Samples were analysed using an Agilent 1200® series HPLC fitted with a Hypersil Gold C18 column (15×2.1×3 μm), using isocratic elution with 60/40 methanol/water (+0.1% Formic Acid) at a flow rate of 0.4 mL/min, using a DAD detector at 285 nm. 4-(4-Chlorophenyl)-5-methylene-pyrrol-2-one has a retention time of ˜2.8 minutes.
Each test surfactant solution was tested in triplicate and the mean value of lactam in solution calculated. Values of solubility were quoted as the improvement in aqueous solubility vs water alone (i.e. mean level of lactam dissolved in water+solvent/mean level of lactam dissolved in water) to allow comparison between screens conducted on different days.

[2] = produced by Rhodococcus erythropolis grown on n-alkane; cited from earlier work
[3] = Additive Di-rhamnolipid R2, 0% in water (water alone)
[4] = Additive Di-rhamnolipid R2, 0.1% in water
[5] = Additive Di-rhamnolipid R2, 0.5% in water
[6] = Additive Di-rhamnolipid R2, 1% in water
[7] = Additive Di-rhamnolipid R2, 2% in water
[8] = Additive Mono-rhamnolipid R1, 0% in water (water alone)
[9] = Additive Mono-rhamnolipid R1, 0.1% in water
[10] = Additive Mono-rhamnolipid R1, 0.5% in water
[11] = Additive Mono-rhamnolipid R1, 1% in water
[12] = Additive Mono-rhamnolipid R1, 2% in water
[13] = Additive Mono-rhamnolipid R1, 4% in water

- Mean Lactam Level in Solution [1, 3]: 2.7 ppm
- Solubility Increase vs water alone [1, 3]: 1.0
- Mean Lactam Level in Solution [1, 4]: 15.2 ppm
- Solubility Increase vs water alone [1, 4]: 5.7
- Mean Lactam Level in Solution [1, 5]: 42.6 ppm
- Solubility Increase vs water alone [1, 5]: 15.9
- Mean Lactam Level in Solution [1, 6]: 77.5 ppm
- Solubility Increase vs water alone [1, 6]: 28.9
- Mean Lactam Level in Solution [1, 7]: 139.6 ppm
- Solubility Increase vs water alone [1, 7]: 52.1
- Mean Lactam Level in Solution [1, 8]: 2.7 ppm
- Solubility Increase vs water alone [1, 8]: 1.0
- Mean Lactam Level in Solution [1, 9]: 10.9 ppm
- Solubility Increase vs water alone [1, 9]: 4.1
- Mean Lactam Level in Solution [1, 10]: 39.3 ppm
- Solubility Increase vs water alone [1, 10]: 14.7
- Mean Lactam Level in Solution [1, 11]: 75.3 ppm
- Solubility Increase vs water alone [1, 11]: 28.1
- Mean Lactam Level in Solution [1, 12]: 149.7 ppm
- Solubility Increase vs water alone [1, 12]: 55.9
- Mean Lactam Level in Solution [1, 13]: 194.8 ppm
- Solubility Increase vs water alone [1, 13]: 72.7
Compound: C=C1NC(=O)C=C1c1ccc(Cl)cc1 [4-(4-chlorophenyl)-5-methylene-pyrrol-2-one]

Compound: Phosphatidylethanolamine
- CMC [2]: 30 mg/L
- interfacial tension between water and hexadecane [2]: less than 1 mN m^−1
